From PubChem BioAssay (NCI) come the findings set out here.

Common to all, as to experiment: NCI-60 cell line screen, 48 h
Assay [1] relates to HCT-15 colon.
Assay [2] concerns MDA-MB-231 breast.
The subject of assay [3] is MDA-MB-435.
In assay [4] the test system is OVCAR-3 ovarian.
The test system of assay [5] is OVCAR-8 ovarian.
Assay [6] deals with SF-295 CNS.
Assay [7] has as its system SK-MEL-5 melanoma.
For assay [8], the system named is SN12C renal.
Assay [9] deals with SNB-75 CNS.
Assay [10] concerns UACC-257 melanoma.

Each structure is given as a SMILES string.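 Each compound was tested at five concentrations against cells in 96-well plates for 48 hours. Here, GI50 denotes the concentration required for 50% inhibition of growth. The concentration for full growth arrest is given as TGI.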

For `COc1ccc(C(C)NNC(=O)c2ccncc2)cc1F` (stereo not given), the TGI in assay [1], in assay [2], in [3], in [4], in [5] and in assay [6] was > 100 µM throughout. Besides, the TGI in assay [7], in assay [8], in assay [9] and in assay [10] was > 100 µM each time.

`O=C(NC/C=C/Br)NC1CCNc2ccccc21` (stereo not given): the TGI in [1] is > 100 µM; in assay [2], > 100 µM; in [3] it was 88.9 µM; in assay [4], > 100 µM; in assay [5] it was > 100 µM; in assay [6], > 100 µM. Moreover, the TGI in assay [7] is 37.7 µM; in [8], > 100 µM; in [9] it was > 100 µM; in assay [10] it was 54.9 µM.

For the molecule `N#Cc1c(C#N)c(-c2ccccc2)n(/N=C\c2ccccc2)c1N`, the TGI in assay [1] was > 100 µM; in assay [2], 65.3 µM; in assay [3], > 100 µM; in assay [4], 48.1 µM; in assay [5], > 100 µM; in assay [6], 65.8 µM. The TGI was 32.8 µM in assay [7], > 100 µM in assay [8], 74.2 µM in assay [9] and 70.3 µM in assay [10].

Take `COC1=CC(=O)c2c(cc(COP(=O)(N(C)CCBr)N(C)CCBr)n2C)C1=O`: the TGI in assay [1] came out at 2.28 µM; in [2], 15.3 µM; in [3], 2.35 µM; in assay [4] it was 10.7 µM; in assay [5] it was 3.98 µM; in assay [6] it was 3.62 µM. Also, the TGI came to 2.33 µM in assay [7], 3.76 µM in assay [8], 0.971 µM in [9] and 12.9 µM in assay [10].

As for `COC(=O)c1c(C#C[Si](C)(C)C)c(C#C[Si](C)(C)C)c(C#C[Si](C)(C)C)c(C#C[Si](C)(C)C)c1C(=O)OC`, the TGI in [1], in [2], in assay [3], in assay [4], in assay [5] and in [6] was > 100 µM in each case. The TGI in [7], in assay [8], in [9] and in assay [10] was > 100 µM each time.

Regarding `Cc1nnc(CC#N)n1NC(=O)CC#N`, the TGI in assay [1], in assay [2], in assay [3], in assay [4], in assay [5] and in assay [6] was > 100 µM each time. Also, the TGI in [7], in assay [8], in assay [9] and in assay [10] was > 100 µM each time.

Consider `CC1(C)O[C@@H](CP(c2cccc3ccccc23)c2cccc3ccccc23)[C@H](CP(c2cccc3ccccc23)c2cccc3ccccc23)O1`, for which the TGI in [1], in assay [2], in assay [3], in assay [4], in assay [5] and in [6] was > 100 µM each time. In addition, the TGI in [7], in [8], in assay [9] and in [10] was > 100 µM each time.

On to `O=C(NCc1ccccc1)c1c(O)c2ccccc2[nH]c1=O`, for which the TGI in assay [1], in [2], in assay [3], in assay [4], in assay [5] and in assay [6] was > 100 µM in each case. For the same molecule, the TGI in [7], in assay [8], in assay [9] and in assay [10] was > 100 µM throughout.

Take `COC(=O)[C@@H]1O[C@]12[C@@H](CO[Si](C)(C)C(C)(C)C)O[C@@H](n1cc(C)c(=O)[nH]c1=O)[C@@H]2O[Si](C)(C)C(C)(C)C`: the TGI in [1] stood at 17.3 µM; in assay [2], 54.8 µM; in assay [3], 59.2 µM; in assay [4] it was 31.1 µM; in [5], 53.4 µM; in assay [6] it was 49.7 µM. In addition, the TGI was 38.5 µM in assay [7], 27.9 µM in assay [8], > 100 µM in [9] and 75.2 µM in assay [10].

As for `Cc1ccc2cnc(N)c(C#Cc3cncc(C(=O)Nc4ccc(CN5CCN(C)CC5)c(C(F)(F)F)c4)c3)c2c1`, the GI50 in assay [1] was 0.174 µM; in assay [2], 0.186 µM; in assay [3], 0.166 µM; in [4], 0.633 µM; in assay [5], 0.579 µM; in assay [6], 0.828 µM. Besides, the GI50 in assay [7] is 0.813 µM; in [8], 0.387 µM; in [9] it was 0.716 µM; in assay [10], 0.605 µM. The TGI in assay [1] stood at 0.731 µM; in assay [2], 0.839 µM; in assay [3] it was 0.805 µM; in assay [4] it was 1.29 µM; in assay [5], 1.22 µM; in [6], 1.57 µM. Moreover, the TGI in assay [7] came to 1.51 µM; in assay [8], 1.07 µM; in assay [9], 1.44 µM; in assay [10], 1.38 µM.

Consider `Cc1cccc(C(O)c2cccnc2)c1O` (stereo not given), for which the TGI in assay [1], in assay [2], in assay [3], in [4], in [5] and in assay [6] was > 100 µM throughout. Further, the TGI in assay [7], in [8], in assay [9] and in assay [10] was > 100 µM in each case.

`CC(C)CC(NC(=O)C(COc1ccc([N+](=O)[O-])cc1)Cc1ccccc1)C(=O)Nc1ccccc1` (stereo not given): the TGI was > 100 µM in assay [1]; 80.3 µM in [2]; > 100 µM in assay [3]; > 100 µM in [4]; 27.4 µM in assay [5]; 26.2 µM in assay [6]. The TGI is > 100 µM in [7], > 100 µM in assay [8], 7.84 µM in [9] and > 100 µM in assay [10].
